SMILES strings stand for the structures.

One data set deals with T1, human CXCR3A (Homo sapiens, UniProt P49682).
T1 construct: expressed in transfected cells; host or cells: CHO-K1
T1 sequence (P49682 1-368): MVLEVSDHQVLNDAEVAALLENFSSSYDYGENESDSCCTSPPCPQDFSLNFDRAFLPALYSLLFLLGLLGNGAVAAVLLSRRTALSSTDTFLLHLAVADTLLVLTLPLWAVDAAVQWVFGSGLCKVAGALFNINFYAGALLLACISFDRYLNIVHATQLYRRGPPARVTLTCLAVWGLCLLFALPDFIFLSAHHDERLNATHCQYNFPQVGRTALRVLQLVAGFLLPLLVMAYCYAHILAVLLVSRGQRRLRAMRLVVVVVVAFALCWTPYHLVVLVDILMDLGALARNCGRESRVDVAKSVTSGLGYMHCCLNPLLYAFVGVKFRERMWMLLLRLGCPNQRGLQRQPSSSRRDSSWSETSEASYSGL
The experiment in a line: FLIPR assay (CXCL10-induced calcium signal in CHO-K1 cells). In kind it is cell-based. The conditions noted are these: CHO-K1 cells expressing human CXCR3A coupled to Galpha(16); CXCL10 agonist 20 nM; mean values.

A further data set deals with T2, hERG K channel (Homo sapiens, UniProt Q12809).
T2 construct: host or cells: CHO
T2 sequence (Q12809 whole entry): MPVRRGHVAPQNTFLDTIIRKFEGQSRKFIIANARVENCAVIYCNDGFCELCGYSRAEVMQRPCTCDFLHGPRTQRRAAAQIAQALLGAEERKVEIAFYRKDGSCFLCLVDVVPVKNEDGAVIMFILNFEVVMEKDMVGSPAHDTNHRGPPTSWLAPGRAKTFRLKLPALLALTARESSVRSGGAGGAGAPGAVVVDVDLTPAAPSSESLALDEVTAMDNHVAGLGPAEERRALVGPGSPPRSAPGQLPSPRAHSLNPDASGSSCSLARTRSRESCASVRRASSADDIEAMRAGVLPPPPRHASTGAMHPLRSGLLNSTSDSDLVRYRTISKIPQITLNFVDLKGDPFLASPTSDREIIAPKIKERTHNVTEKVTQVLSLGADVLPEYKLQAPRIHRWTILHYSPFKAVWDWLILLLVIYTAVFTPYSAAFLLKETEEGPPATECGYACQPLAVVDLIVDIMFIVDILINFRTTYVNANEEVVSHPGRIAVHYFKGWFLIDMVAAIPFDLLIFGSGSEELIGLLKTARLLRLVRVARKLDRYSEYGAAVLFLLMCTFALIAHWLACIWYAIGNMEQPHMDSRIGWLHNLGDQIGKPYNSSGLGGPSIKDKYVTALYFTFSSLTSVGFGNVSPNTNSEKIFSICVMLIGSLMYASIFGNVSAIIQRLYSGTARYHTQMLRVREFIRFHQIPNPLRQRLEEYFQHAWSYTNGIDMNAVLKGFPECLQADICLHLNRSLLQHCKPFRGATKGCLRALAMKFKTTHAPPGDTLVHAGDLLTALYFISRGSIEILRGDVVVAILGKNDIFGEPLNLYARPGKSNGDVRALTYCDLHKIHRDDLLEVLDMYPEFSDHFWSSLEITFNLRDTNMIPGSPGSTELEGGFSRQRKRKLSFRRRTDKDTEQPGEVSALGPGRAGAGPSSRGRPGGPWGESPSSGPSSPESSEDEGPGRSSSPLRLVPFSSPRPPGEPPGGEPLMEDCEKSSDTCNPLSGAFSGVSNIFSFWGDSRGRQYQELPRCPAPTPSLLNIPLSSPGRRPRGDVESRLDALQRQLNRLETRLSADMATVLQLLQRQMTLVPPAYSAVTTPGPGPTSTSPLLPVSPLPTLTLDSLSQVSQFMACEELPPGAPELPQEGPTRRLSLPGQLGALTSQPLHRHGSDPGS
The experiment in a line: hERG Q-Patch assay. In kind it is cell-based. The conditions noted are these: CHO cells expressing hERG, K+ tail current 3 min after application, mean of two or three experiments. Background: hERG is a cardiac potassium channel; its block is linked to QT prolongation.

Data set [1] in a line: Human liver microsome assay (metabolic stability). In kind it is in vitro ADME. The conditions noted are these: human liver microsomes 0.5 mg/mL, compound 1 μM, 37° C., pH 7.4, NADPH-regenerating system. Here is the method: Incubation with human liver microsomes was performed to assess metabolic stability at a single compound concentration of 1 μM. A 1 μL-aliquot of the compounds stock solutions in DMSO were added to 899 μL of 100 mM phosphate buffer (pH 7.4) containing the liver microsomes at a concentration of 0.5 mg/mL and the mixture was incubated at 37° C. in an Eppendorf thermomixer at 450 rpm. The reaction was initiated by addition of 100 μL of NADPH-regenerating system containing the glucose-6-phosphate dehydrogenase and at the pre-defined time points, 0, 1.5, 2.5, 5, 10, and 15 min, 100 μL of the incubation was transferred in 100 μL of ice-cold methanol to stop the reaction. Samples were centrifuged at 3220 g for 20 min at 4° C. and the supernatants were submitted to LC/MS-MS analysis.
Calculation of intrinsic clearance CLint:
Natural logarithm of remaining amount of compound was plotted as function of time and the slope of the line determined.
Elimination rate constant (k)=−slope
V=volume of incubation/amount of protein
For orientation: Liver microsomes are vesicles of endoplasmic reticulum, rich in cytochrome P450 enzymes.

Data set [2] is described as follows: Determination of pharmacokinetic parameters in rats. The conditions noted are these: for AUC: male, Wistar (RccHan:WIST), rat, po, 2 mg/kg.
Protocol: Male Wistar rats (RccHan:WIST) were obtained from Harlan (Venray, The Netherlands) and used for pharmacokinetic experiments after an acclimatization period of at least 7 days. The body weight of the rats was about 250 g at the day of the experiment. Two days prior to dosing, rats were anesthetized for surgery via inhalation of isoflurane (4-5% for induction and 1.5-3% for maintenance) in oxygen. Buprenorphine was dosed as analgesic at 0.03 mg/kg sc half an hour before surgery. Under aseptic conditions, catheters were implanted into jugular vein for dosing and carotid artery to allow for multiple serial blood sampling. […] Compounds were administered intravenously via a 5-minute infusion at doses of 0.5 or 1 mg/kg body weight formulated as solutions in water prepared by pH adjustment or as an aqueous mixed micellar vehicle based on phospholipids and bile acids (mixed micelles). […] Oral formulations were solutions in water prepared by pH adjustment or dispersions prepared by addition of a DMSO stock solution of the compounds to methylcellulose (0.5% w/v) in water. […] Blood samples were centrifuged at 3000 g (10 minutes, 4° C.) and plasma was submitted to LC-MS/MS analysis.

A word on the IC50: it is the concentration needed to halve the response being measured. A word on the microsomal CLint: it is a measure of how fast metabolising enzymes remove a compound, apart from limits set by blood flow. Low values mean slow turnover, high ones rapid turnover. On to `CCCc1ncc(-c2nc(C(F)(F)F)sc2N2CCN(C(=O)Cn3nc(C)nc3C)[C@H](C)C2)cn1` [Example 22, 2-(3,5-Dimethyl-[1,2,4]triazol-1-yl)-1-{(R)-2-methyl-4-[4-(2-propyl-pyrimidin-5-yl)-2-trifluoromethyl-thiazol-5-yl]-piperazin-1-yl}-ethanone], for which, at human CXCR3A, the IC50 came out at 2.9 nM. Also, the entries for the “% block” value on hERG K channel (concentration 300 nM) and at hERG K channel (concentration 3000 nM) were 1% and 7%, respectively. The same compound yielded a microsomal CLint at 1 µM in data set [1] of 78 µL/min/mg.
The term AUC denotes concentration integrated over time. Take `Cc1nc(C)n(CC(=O)N2CCN(c3sc(C(F)(F)F)nc3-c3cnc(C(F)(F)F)nc3)C[C@H]2C)n1` [Example 24, 2-(3,5-Dimethyl-[1,2,4]triazol-1-yl)-1-{(R)-2-methyl-4-[2-trifluoromethyl-4-(2-trifluoromethyl-pyrimidin-5-yl)-thiazol-5-yl]-piperazin-1-yl}-ethanone]: the “plasma concentration after oral administration” value in data set [2] (compared to reference compounds disclosed in WO 2010/126811) is listed as “surprisingly high plasma concentration”. Also, the AUC in data set [2] (in vivo, pH 2.1) is 14000 ng·h/mL.
Take `CCOc1ncc(-c2nc(C(F)(F)F)sc2N2CCN(C(=O)Cn3nc(CC)nc3C)[C@H](C)C2)cn1` (single isomer, unassigned) [Example 18]: the concentration for half-maximal inhibition (IC50) on human CXCR3A was determined as 3.1 nM. In addition, the “% block” value at hERG K channel (concentration 300 nM) stood at 3%; on hERG K channel (concentration 3000 nM), 13%. The same compound gave a microsomal CLint at 1 µM in data set [1] of 60 µL/min/mg.
For the compound `CNc1ncc(-c2cc(C(F)(F)F)ccc2N2CCN(C(=O)Cn3nc(C)cc3C)CC2)cn1` [reference compound 3, 2-(3,5-Dimethyl-pyrazol-1-yl)-1-{4-[2-(2-methylamino-pyrimidin-5-yl)-4-trifluoromethyl-phenyl]-piperazin-1-yl}-ethanone], the AUC in data set [2] (plasma, pH 3.03) is 271 ng·h/mL.
Regarding `Cc1nc(C)n(CC(=O)N2CCN(c3sc(C(F)(F)F)nc3-c3cnc(OC4CCC4)nc3)C[C@H]2C)n1` [Example 38, 1-{(R)-4-[4-(2-Cyclobutoxy-pyrimidin-5-yl)-2-trifluoromethyl-thiazol-5-yl]-2-methyl-piperazin-1-yl}-2-(3,5-dimethyl-[1,2,4]triazol-1-yl)-ethanone], the IC50 at human CXCR3A stood at 2.3 nM. Further, the “% block” value at hERG K channel (concentration 300 nM) was 5%; on hERG K channel (concentration 3000 nM), 11%. Further, the microsomal CLint at 1 µM in data set [1] is 51 µL/min/mg.
On to `CCOc1ncc(-c2nc(C(F)(F)F)sc2N2CCN(C(=O)Cn3nc(C)nc3C)[C@H](C)C2)cn1` [Example 20, 2-(3,5-Dimethyl-[1,2,4]triazol-1-yl)-1-{(R)-4-[4-(2-ethoxy-pyrimidin-5-yl)-2-trifluoromethyl-thiazol-5-yl]-2-methyl-piperazin-1-yl}-ethanone], for which the IC50 on human CXCR3A is 5.7 nM. Further, the “% block” value amounted to 9% at hERG K channel (concentration 300 nM) and 20% at hERG K channel (concentration 3000 nM). In data set [1], this compound registered a microsomal CLint at 1 µM of 8 µL/min/mg.
Regarding `CSc1ncc(-c2cc(C(F)(F)F)ccc2N2CCN(C(=O)Cn3nc(C)cc3C)CC2)cn1` [reference compound 2, 2-(3,5-Dimethyl-pyrazol-1-yl)-1-{4-[2-(2-methylsulfanyl-pyrimidin-5-yl)-4-trifluoromethyl-phenyl]-piperazin-1-yl}-ethanone], the AUC in data set [2] (plasma) is 202 ng·h/mL.
Turning to `CCOc1ccc(-c2nc(C(F)(F)F)sc2N2CCN(C(=O)Cn3nc(C)nc3C)[C@H](C)C2)cn1` [Example 15, 2-(3,5-Dimethyl-[1,2,4]triazol-1-yl)-1-{(R)-4-[4-(6-ethoxy-pyridin-3-yl)-2-trifluoromethyl-thiazol-5-yl]-2-methyl-piperazin-1-yl}-ethanone], the IC50 at human CXCR3A worked out at 9.2 nM. In addition, the “% block” value at hERG K channel (concentration 300 nM) is 1%; on hERG K channel (concentration 3000 nM) it was 13%. In data set [1], this compound showed a microsomal CLint at 1 µM of 66 µL/min/mg.
Taken in the same sequence, the figures for `Cc1nc(C)n(CC(=O)N2CCN(c3sc(C(F)(F)F)nc3-c3cnc(OC(C)C)nc3)C[C@H]2C)n1` [Example 27, 2-(3,5-Dimethyl-[1,2,4]triazol-1-yl)-1-{(R)-4-[4-(2-isopropoxy-pyrimidin-5-yl)-2-trifluoromethyl-thiazol-5-yl]-2-methyl-piperazin-1-yl}-ethanone] were 3.5 nM, 2%, 6% and 13 µL/min/mg.
Taken in the same sequence, the figures for `Cc1nc(C)n(CC(=O)N2CCN(c3sc(C(F)(F)F)nc3-c3cnc(N4CCCC4)nc3)C[C@H]2C)n1` [Example 36, 2-(3,5-Dimethyl-[1,2,4]triazol-1-yl)-1-{(R)-2-methyl-4-[4-(2-pyrrolidin-1-yl-pyrimidin-5-yl)-2-trifluoromethyl-thiazol-5-yl]-piperazin-1-yl}-ethanone] were 1.6 nM, 7%, 15% and 338 µL/min/mg.
In the case of `CC[C@@H]1CN(c2sc(C(F)(F)F)nc2-c2cnc(C(F)(F)F)nc2)CCN1C(=O)Cn1nc(C)nc1C` [Example 51, 2-(3,5-Dimethyl-[1,2,4]triazol-1-yl)-1-{(R)-2-ethyl-4-[2-trifluoromethyl-4-(2-trifluoromethyl-pyrimidin-5-yl)-thiazol-5-yl]-piperazin-1-yl}-ethanone], at human CXCR3A, the IC50 worked out at 0.6 nM. Also, the “% block” value turned out to be 6% at hERG K channel (concentration 300 nM) and 18% on hERG K channel (concentration 3000 nM). In data set [1], this compound yielded a microsomal CLint at 1 µM of 1 µL/min/mg.
As for `Cc1nc(C)n(CC(=O)N2CCN(c3sc(C(F)(F)F)nc3-c3ccc(Cl)cc3)C[C@H]2C)n1` [Example 7, 1-{(R)-4-[4-(4-Chloro-phenyl)-2-trifluoromethyl-thiazol-5-yl]-2-methyl-piperazin-1-yl}-2-(3,5-dimethyl-[1,2,4]triazol-1-yl)-ethanone], the IC50 on human CXCR3A was found to be 9.3 nM. Besides, the “% block” value at hERG K channel (concentration 300 nM) was 34%; at hERG K channel (concentration 3000 nM), 88%. Besides, in data set [1], the microsomal CLint at 1 µM came out at 7 µL/min/mg.
In the same order, the values of `Cc1nc(CO)n(CC(=O)N2CCN(c3sc(C(F)(F)F)nc3-c3cnc(C(F)(F)F)nc3)C[C@H]2C)n1` [Example 45, 2-(5-Hydroxymethyl-3-methyl-[1,2,4]triazol-1-yl)-1-{(R)-2-methyl-4-[2-trifluoromethyl-4-(2-trifluoromethyl-pyrimidin-5-yl)-thiazol-5-yl]-piperazin-1-yl}-ethanone] are 15 nM, 0%, 1% and 14 µL/min/mg.
In data set [2] (plasma), `COc1ncc(-c2cc(C(F)(F)F)ccc2N2CCN(C(=O)Cn3nc(C)cc3C)CC2)cn1` [reference compound 1, 2-(3,5-Dimethyl-pyrazol-1-yl)-1-{4-[2-(2-methoxy-pyrimidin-5-yl)-4-trifluoromethyl-phenyl]piperazin-1-yl}-ethanone] returned an AUC of 273 ng·h/mL.

Values taken from patent US10259807B2, “1-(piperazin-1-yl)-2-([1,2,4]triazol-1-yl)-ethanone derivatives” (Idorsia Pharmaceuticals Ltd., priority 2013, dated 2019).
